The results in this text go back to US20230192648A1, “IMMUNOREGULATORY COMPOUNDS” (NIMML INSTITUTE, priority 2021, published 2023).

The test system of assay [1] is DSS model of acute inflammatory bowel disease. As to the kind of experiment: DSS model of acute inflammatory bowel disease. The format is in vivo, mouse. To be noted: oral, 10 mg/kg once daily, relative to vehicle; for proportion of CD4+ T cells in the colonic lamina propria: FIG. 3A; for F4/80hi macrophages (colon): FIG. 3C. Here is the method: DSS model. Mice were given DSS in drinking water for seven days. At project initiation, mice were 8 weeks of age and began dosing 24 hours after being placed on DSS. Mice were weighed and scored daily for symptoms of disease (diarrhea, rectal bleeding, rectal inflammation, overall behavior). Treatments were prepared within a 0.5% methylcellulose (12-15 cP) solution. The dosage used was 10 mg/kg delivered once daily. Flow Cytometry. Colons were collected into RPMI/FBS buffer containing collagenase (300 U/mL) and DNase (50 U/mL) for digestion. Tissues were digested for 60 minutes under stirring at 37° C. Resultant cellular suspensions were filtered through 100 µm strainers, centrifuged (300 x g, 8 min), and washed in fresh RPMI. Following filtration of the resulting single cell suspensions, immune cells were purified by Percoll gradient of cell-containing 40% Percoll overlayed onto 70% Percoll solution. After centrifugation, interphase was collected and washed to obtain enriched colonic lamina propria cell fractions. Cells were labeled with mixtures of extracellular (CD45, CD3, CD4, CD8, CD25, F4/80, CD11b, MHCII) antibodies in a sequential live staining in 96-well plates. Data was acquired using a FACS Celesta flow cytometer with FACSDiva software.

Assay [2] deals with bm12 model of systemic inflammation. Nature of the assay: bm12 mouse model of systemic inflammation. The class given is in vivo.
Assay [3] relates to influenza A (H1N1). Nature of the assay: Influenza A (H1N1) infection of mice, survival. The class given is in vivo, mouse. Conditions: 25 mg/kg orally daily, FIG. 4; for delay of first mortality: vehicle mortality beginning at day 6. Here is the method:
Wild type C57BL/6 mice were anesthetized by isoflurane inhalation. Mice were infected with influenza A (H1N1) intranasally at a challenge titer of 2 x 10^4 TCID50/mL. Mice were treated daily with NIM-1001-2, NIM-1001-8, or NIM-1001-9 at a dose of 25 mg/kg orally via gavage. Mice were monitored daily.

Assay [4] deals with experimental autoimmune encephalomyelitis. Nature of the assay: Mouse model of experimental autoimmune encephalomyelitis (adoptive transfer of MOG-primed splenocytes). Conditions: oral 20 mg/kg from 7 days post-transfer. The class given is in vivo. Here is the method:
Mouse model. C57BL6 mice were challenged at 10- to 16-weeks of age with MOG immunization with complete Freund’s adjuvant. MOG emulsion was administered to the cervical region and the hind flank at 100 µL per site to each mouse. After 10 days, spleens were harvested. Isolated splenocytes were cultured in the presence of MOG, IL-12 and anti-interferon gamma for 3 days. Splenocytes were then washed and injected into recipient mice at approximately 20 million cells per mouse. Oral treatment with NIM-1001-8 (20 mg/kg) or vehicle was initiated at 7 days post-transfer. Mice were be scored (0-3) daily for disease activity (coordination, gait, paralysis).
Flow Cytometry. Spinal cords were excised and digested with papain and DNase. Immune cells were purified by Percoll gradient. Cells were labeled with mixtures of extracellular (CD45, CD3, CD4, CD8, CD25) and intracellular (IL17) antibodies in a sequential live staining in 96-well plates in preparation for flow cytometry. Data was captured on a BD FACS Celesta and analyzed using FacsDiva.
Histology. Sections of the spinal cord from the lumbar region were extracted and fixed in formalin. Samples were embedded in paraffin and sectioned. By immunohistochemistry, samples were stained for the presence of glial fibrillary acidic protein (GFAP). Slides were assessed microscopically and scored (0-3) for the intensity and frequency of GFAP positive cells. GFAP is a common protein marker for astrocytes in the central nervous system

In assay [5] the test system is MRL/lpr model of systemic lupus erythematosus. Nature of the assay: MRL/lpr genetic mouse model of SLE. To be noted: daily orogastric gavage from 12 weeks of age. The format is in vivo. Here is the method:
Mouse model. Female MRL/lpr mice were obtained at 8 weeks of age. Mice were followed for four weeks for the development of proteinuria. […] Treatment with NIM-1001-8, or vehicle control, were administered by orogastric gavage daily, beginning at 12 weeks of age, in a 0.5% methylcellulose suspension.
Immunological analysis. Urine was collected for assay for protein content to test for kidney function. Spleens were excised, crushed and filtered to provide a cellular suspension. Red blood cells were lysed. Cells were labeled with mixtures of extracellular (CD45, CD3, CD4, CD8, CD25) and intracellular (FOXP3, IL17) antibodies in a sequential live staining in 96-well plates in preparation for flow cytometry. Data was captured on a BD FACS Celesta and analyzed using FacsDiva.

Assay [6] concerns genetic model of Alzheimer's disease. Nature of the assay: Genetic mouse model of Alzheimer's disease. The class given is in vivo. To be noted: oral 10 mg/kg for eight weeks, relative to vehicle. As to the method: Mouse model. Genetically modified mice that spontaneously develop cognitive impairment at 4 months of age and histological signs of disease at 6 months of age were randomized into the project at 24 weeks of age. Mice were orally treated with vehicle or NIM-1001-8 (10 mg/kg) for eight weeks. After eight weeks of treatment, mice were evaluated using a light-dark test to measure the time spent in the light relative to the dark. This is a measure of an anxiety response. Genetically modified mice were compared to age-matched wild-type mice (negative control).
Flow Cytometry. Brains were collected into RPMI/FBS buffer containing collagenase (300 U/mL) and DNase (50 U/mL) for digestion. Tissues were digested for 30 minutes under stirring at 37° C. Resultant cellular suspensions were filtered through 100 µm strainers, centrifuged (300 x g, 8 min), and washed in fresh RPMI. Following filtration of the resulting single cell suspensions, immune cells were purified by Percoll gradient of cell-containing 40% Percoll overlayed onto 70% Percoll solution. After centrifugation, interphase was collected and washed to obtain enriched immune cell fractions. Cells were labeled with mixtures of extracellular (CD45, CD3, CD4, CD8, CD11b, Gr1) and intracellular (IL17) antibodies in a sequential live staining in 96-well plates. Data was acquired using a FACS Celesta flow cytometer with FACSDiva software.

Assay [7] deals with MPTP induced model of Parkinson's disease. As to the kind of experiment: MPTP induced mouse model of Parkinson's disease. The class given is in vivo. Conditions: oral 25 mg/kg once daily. Here is the method:
Mouse model. Mice were administered intraperitoneal injections of 1-methyl-4-phenyl-1,2,3,6-tetrahydropyridine (MPTP) and probenecid three times weekly for 4 weeks. In the second week of injections, oral treatment with vehicle or NIM-1001-8 (25 mg/kg) was initiated once daily. After four weeks of injections, motor control was assessed by counting the number of step errors during a challenging beam test. Mice challenged with MPTP were compared to mice challenged with a sham injection (negative control).
Flow Cytometry. Spleens were excised, crushed and filtered to provide a cellular suspension. Red blood cells were lysed. Cells were labeled with mixtures of extracellular (CD45, CD3, CD4, CD8, CD25) and intracellular (IL21, IL17) antibodies in a sequential live staining in 96-well plates in preparation for flow cytometry. Data was captured on a BD FACS Celesta and analyzed using FacsDiva.

The subject of assay [8] is IMQ-induced model of psoriasis. Nature of the assay: Imiquimod (IMQ) induced model of psoriasis. The class given is in vivo, mouse. To be noted: oral 20 mg/kg daily. Here is the method: IMQ-induced model. C57BL/6 mice were anesthetized, shaved, and briefly exposed to depilatory cream on the surface of the back. Mice were given three days to recover from the procedure prior to entry to the study. After 3 days, mice were challenged with approximately 60 mg of […] imiquimod cream daily by spreading cream over the shaved area. Oral treatment with vehicle or NIM-1001-8 (20 mg/kg) occurred daily.
Analysis. Spleens were excised and crushed by microscope slides. Red blood cells were hypotonically lysed from the resultant suspension. Samples were filtered, washed and centrifuged prior to staining. Cells were labeled with mixtures of extracellular (CD45, CD3, CD4, CD8, CD25, F4/80, CD11b, MHCII) and intracellular (TNF, IL17) antibodies in a sequential live staining in 96-well plates in preparation for flow cytometry. Data was captured on a BD FACS Celesta and analyzed using FacsDiva.

For assay [9], the system named is NOD model of Sjogren's syndrome. As to the kind of experiment: NOD mouse model of Sjogren's syndrome. Conditions: relative to vehicle, FIG. 10. The format is in vivo. Here is the method:
NOD model. Ten-week-old female NOD mice were treated with vehicle or NIM-1001-8 (2 or 50 mg/kg) daily by oral gavage for four weeks. After conclusion of the treatment period, submandibular glands were excised and fixed in formalin. Glands were processed and H&E-stained slides were prepared. Slides were scored by blinded reviewer, on a 0 to 4 composite scale encompassing level of inflammation and disease.

[10] abbreviates: oral gavage daily, 20 mg/kg/day, relative to vehicle; FIG. 2A.
The mark [11] stands for this setting: oral gavage daily, 20 mg/kg/day, relative to vehicle; FIG. 2C.
The mark [12] stands for this setting: oral gavage daily, 20 mg/kg/day, relative to vehicle, FIG. 2C.

“Also recorded” adds a separate entry of the source.

As for `CCc1noc(/C=C/c2cncc(Nc3cc(-c4nc(C)no4)cc(Cl)n3)c2)n1` [NIM-1001-11], in assay [1], the “proportion of CD4+ T cells in the colonic lamina propria” value (“proportion of CD4+ T cells” for short) is “reduced” and the “F4/80hi macrophages (colon)” value is recorded as “significant reductions”.

Consider `CCNC(=O)/C=C/c1cncc(Nc2nccc(C(=O)NC)n2)c1` [NIM-1001-12], for which the “spleen size in proportion to overall body weight” value (“spleen size in proportion” below) in assay [2] (setting [10]) is “significantly reduced”. In addition, the “proportion of CD25+ FOXP3+ regulatory T cells in the spleen” value in assay [2] (setting [11]) is “significantly increased”. For the same molecule, in assay [1], the “proportion of CD4+ T cells” value is reported as “reduced” and the “F4/80hi macrophages (colon)” value is on record as “significant reductions”.

In the case of `CCOC(=O)/C=C/c1cncc(Nc2cc(C(=O)OC)cc(Cl)n2)c1` [NIM-1001-10], in [2] (setting [10]), the “spleen size in proportion” value is “reduced the normalized spleen size at a lesser degree”.

`CCNC(=O)/C=C/c1cncc(Oc2nccc(C(=O)NC)n2)c1C` [NIM-1001-9]: the “spleen size in proportion” value in [2] (setting [10]) is recorded as “significantly reduced”. Moreover, the “proportion of CD25+ FOXP3+ regulatory T cells in the spleen” value in assay [2] (setting [11]) is reported as “significantly increased”. Further, the “survival at day 10 (fraction of group)” value in [3] (vehicle 25% survival by day 10) is on record as “two-thirds”. The “delay of first mortality” value in assay [3] is given as “one day”.

As to `CCc1noc(/C=C/c2cncc(Oc3cc(-c4nc(C)no4)cc(Cl)n3)c2C)n1` [NIM-1001-2], in assay [2] (setting [10]), the “spleen size in proportion” value is “significantly reduced”. The “proportion of CD25+ FOXP3+ regulatory T cells in the spleen” value in [2] (setting [11]) is listed as “significantly increased”. Moreover, the “proportion of CD4+ T cells” value in [1] is “reduced”. Besides, the “survival at day 10 (fraction of group)” value in assay [3] (vehicle 25% survival by day 10) is on record as “two-thirds”. For the same molecule, the “delay of first mortality” value in assay [3] is on record as “one day”.

`CCOC(=O)/C=C/c1cncc(Oc2cc(C(=O)OC)cc(Cl)n2)c1C` [NIM-1001-8, methyl (E)-2-chloro-6-((5-(3-ethoxy-3-oxoprop-1-en-1-yl)-4-methylpyridin-3-yl)oxy)isonicotinate]: in assay [2] (setting [12]), the “proportion of CD25+ FOXP3+ regulatory T cells in the spleen” value is reported as “significantly increased; also recorded: largest magnitude of increase”. The “spleen size in proportion” value in assay [2] (setting [10]) is “significantly reduced”. Besides, the “proportion of CD4+ T cells” value in assay [1] was “reduced”. Moreover, the “F4/80hi macrophages (colon)” value in assay [1] is “significant reductions”. Besides, the “survival at day 10” value in assay [3] (vehicle 25% survival by day 10) turned out to be 83%. Also, the “delay of first mortality” value in assay [3] was “two days”. The “overall disease severity (score 0-3)” value in [4] (FIG. 5A) was “amelioration”. Also, the “proportion of CD4+ IL17+ T cells in the spinal cord” value in [4] (FIG. 5B) is reported as “decreased”. Also, in assay [4] (FIG. 5C), the “GFAP positive staining in the spinal cord” value is given as “decreased”. The “urine protein levels, reduction” value in [5] (relative to vehicle, FIG. 6A) was “more than two-fold”. For the same molecule, in assay [5] (P < 0.05, FIG. 6B), the “splenic CD25+ FOXP3+ regulatory T cells” value is given as “significant increase”. The “splenic CD4+ IL17+ cells” value in [5] (P < 0.05, FIG. 6C) is recorded as “significant decrease”. The “time spent in the light (light-dark test)” value in assay [6] (FIG. 7A, 10 mg/kg) is listed as “significantly increased; also recorded: restored the time to equal that of the negative control group”. Besides, the “proportion of neutrophils in the brain” value in assay [6] (FIG. 7B) is “decreased”. The “proportion of CD4+ IL17+ T cells in the brain” value in assay [6] (FIG. 7C) is listed as “decreased”. Moreover, the “number of step errors during a challenging beam test” value in [7] (relative to vehicle, FIG. 8A) was “significantly reduced; also recorded: near complete abrogation of MPTP effects”. Also, the “CD4+ IL21+ T cells within the spleen” value in assay [7] (P < 0.05, FIG. 8B) is “significant reductions”. For the same molecule, in assay [7] (P < 0.05, FIG. 8C), the “CD4+ IL17+ T cells within the spleen” value was “significant reductions”. Further, the “proportion of TNF+ CD4+ T cells in the spleen” value in [8] (relative to vehicle, FIG. 9A) was “significantly reduced”. Also, the “proportion of IL17+ CD4+ T cells in the spleen” value in [8] (relative to vehicle, FIG. 9B) is “significantly reduced”. Further, the “proportion of F4/80hi inflammatory macrophages” value in assay [8] (FIG. 9C) is “decreased”. Besides, the “histological severity of disease in the submandibular glands (score 0 to 4)” value in assay [9] (2 mg/kg daily by oral gavage for four weeks) and in assay [9] (50 mg/kg daily by oral gavage for four weeks) was “significantly reduced” each time.

Turning to `CCOC(=O)/C=C/c1cncc(Oc2cc(C(=O)NC)cc(Cl)n2)c1C` [NIM-1001-4], in [2] (setting [12]), the “proportion of CD25+ FOXP3+ regulatory T cells in the spleen” value is given as “significantly increased; also recorded: largest magnitude of increase”. In [2] (setting [10]), the “spleen size in proportion” value is recorded as “reduced the normalized spleen size at a lesser degree”.
